Source: patent US20070197538A1, “Anti-vascular and anti-proliferation methods, therapies, and combinations employing specific tyrosine kinase inhibitors” (priority 2004, published 2007)
pIC50: −log10 of the molar value. Entries after “also recorded” stand apart in the source; their conditions may differ. Counter-ions that a name gives are not always drawn.

Key:
[1] = target: T1, Abl-1 (Homo sapiens, UniProt P00519); experiment: recombinant kinase transphosphorylation (33P-ATP) profiling, Abl-1; assay type: biochemical; conditions: 10 concentrations, n=1
T1 construct: host or cells: baculovirus system
Protocol: (§1) The ability of a set of protein kinases—tyrosine and serine/threonine kinases expressed in a baculovirus system—to incorporate ^33P (from ^33P-ATP) in relevant substrates, in the presence of decreasing concentrations of the inhibitor (10 concentrations from 10^−5 to 3.10^−10, n=1) was determined.

[2] = target: T2, FGR (Homo sapiens, UniProt P09769); experiment: recombinant kinase transphosphorylation (33P-ATP) profiling, FGR; assay type: biochemical; conditions: 10 concentrations, n=1
T2 construct: host or cells: baculovirus system
Protocol: as §1

[3] = target: T3, Flt-3 (Homo sapiens, UniProt P36888); experiment: recombinant kinase transphosphorylation (33P-ATP) profiling, Flt-3; assay type: biochemical; conditions: 10 concentrations, n=1
T3 construct: host or cells: baculovirus system

[4] = test system: MOLM-13 cells (FLT3-ITD); experiment: MOLM-13 cell growth, luminescence assay at 72 hours; assay type: cell-based
Excerpt: Staurosporine, a non specific kinase inhibitor, is used as positive control.

[5] = target: T4, Src (Homo sapiens, UniProt P12931); experiment: recombinant kinase transphosphorylation (33P-ATP) profiling, Src; assay type: biochemical; conditions: 10 concentrations, n=1
T4 construct: host or cells: baculovirus system

[6] = test system: protein kinases belonging to families different from the tyrosine kinase family; experiment: kinase profiling, protein kinases outside the tyrosine kinase family; assay type: biochemical
[7] = target: Irak; experiment: recombinant kinase transphosphorylation (33P-ATP) profiling, Irak; assay type: biochemical; conditions: 10 concentrations, n=1
[8] = test system: FLT3-ITD; experiment: cellular FLT3 phosphorylation, immunoprecipitation/western blot; conditions: immunoprecipitations/western blot
[9] = test system: Mouse endothelial cells from pancreas; experiment: sensitivity of pancreas endothelial cells to Taxotere cytotoxicity; assay type: cell-based; conditions: with Taxotere
Protocol: Mouse endothelial cells from pancreas are maintained in culture at a temperature 33° C. where they are actively dividing.

[10] = test system: MV4-11 and MOLM-13 cells; experiment: apoptosis by annexin V-FITC / propidium iodide flow cytometry; assay type: cell-based; conditions: 48 to 72 hours incubation
Protocol: Apoptosis was evaluated by means of flow cytometry to measure cellular binding of an annexin V-FITC conjugate as well as uptake of the vital stain propidium iodide.

[11] = test system: RS4-11 cells (FLT3-wild type); experiment: RS4-11 cell growth, luminescence assay at 72 hours; assay type: cell-based, human; conditions: with or without 100 ng/mL FLT3 ligand, FIGS. 5 and 6
[12] = target: T5, Kit (Homo sapiens, UniProt P10721); experiment: recombinant kinase transphosphorylation (33P-ATP) profiling, Kit; assay type: biochemical; conditions: 10 concentrations, n=1
T5 construct: host or cells: baculovirus system

[13] = test system: MV4-11 cells (FLT3-ITD); experiment: MV4-11 cell growth, luminescence assay at 72 hours; assay type: cell-based, human
Excerpt: Staurosporine, a non specific kinase inhibitor, was used as positive control.

[14] = test system: MAPK, P13K and STAT5 pathways; experiment: FLT3 downstream signaling phosphorylation in AML FLT3-ITD cell lines; assay type: cell-based; conditions: immunoprecipitations/western blot
[15] = test system: MV4;11 cells; experiment: intravenous MV4;11 leukemia model in NOD-SCID mice; assay type: in vivo
Protocol: In a subset of animals, bone marrow cell suspensions are prepared by flushing mouse femurs with cold sterile PBS, at experimental timepoints (within 90 days of implantation).

[16] = test system: AML193 cells (wild type FLT3); experiment: AML193 cell growth, luminescence assay at 72 hours; conditions: with or without 100 ng/mL FLT3 ligand, GN963 at concentrations used (30 μM), FIGS. 3 and 4
[17] = target: T6, VEGF-R2 (Homo sapiens, UniProt P35968); experiment: recombinant kinase transphosphorylation (33P-ATP) profiling, VEGF-R2; assay type: biochemical; conditions: 10 concentrations, n=1
T6 construct: host or cells: baculovirus system
Protocol: as §1

[18] = target: T7, IGF1-R (Homo sapiens, UniProt P08069); experiment: recombinant kinase transphosphorylation (33P-ATP) profiling, IGF1-R; assay type: biochemical; conditions: 10 concentrations, n=1
T7 construct: host or cells: baculovirus system
T7 sequence (P08069 31-1367): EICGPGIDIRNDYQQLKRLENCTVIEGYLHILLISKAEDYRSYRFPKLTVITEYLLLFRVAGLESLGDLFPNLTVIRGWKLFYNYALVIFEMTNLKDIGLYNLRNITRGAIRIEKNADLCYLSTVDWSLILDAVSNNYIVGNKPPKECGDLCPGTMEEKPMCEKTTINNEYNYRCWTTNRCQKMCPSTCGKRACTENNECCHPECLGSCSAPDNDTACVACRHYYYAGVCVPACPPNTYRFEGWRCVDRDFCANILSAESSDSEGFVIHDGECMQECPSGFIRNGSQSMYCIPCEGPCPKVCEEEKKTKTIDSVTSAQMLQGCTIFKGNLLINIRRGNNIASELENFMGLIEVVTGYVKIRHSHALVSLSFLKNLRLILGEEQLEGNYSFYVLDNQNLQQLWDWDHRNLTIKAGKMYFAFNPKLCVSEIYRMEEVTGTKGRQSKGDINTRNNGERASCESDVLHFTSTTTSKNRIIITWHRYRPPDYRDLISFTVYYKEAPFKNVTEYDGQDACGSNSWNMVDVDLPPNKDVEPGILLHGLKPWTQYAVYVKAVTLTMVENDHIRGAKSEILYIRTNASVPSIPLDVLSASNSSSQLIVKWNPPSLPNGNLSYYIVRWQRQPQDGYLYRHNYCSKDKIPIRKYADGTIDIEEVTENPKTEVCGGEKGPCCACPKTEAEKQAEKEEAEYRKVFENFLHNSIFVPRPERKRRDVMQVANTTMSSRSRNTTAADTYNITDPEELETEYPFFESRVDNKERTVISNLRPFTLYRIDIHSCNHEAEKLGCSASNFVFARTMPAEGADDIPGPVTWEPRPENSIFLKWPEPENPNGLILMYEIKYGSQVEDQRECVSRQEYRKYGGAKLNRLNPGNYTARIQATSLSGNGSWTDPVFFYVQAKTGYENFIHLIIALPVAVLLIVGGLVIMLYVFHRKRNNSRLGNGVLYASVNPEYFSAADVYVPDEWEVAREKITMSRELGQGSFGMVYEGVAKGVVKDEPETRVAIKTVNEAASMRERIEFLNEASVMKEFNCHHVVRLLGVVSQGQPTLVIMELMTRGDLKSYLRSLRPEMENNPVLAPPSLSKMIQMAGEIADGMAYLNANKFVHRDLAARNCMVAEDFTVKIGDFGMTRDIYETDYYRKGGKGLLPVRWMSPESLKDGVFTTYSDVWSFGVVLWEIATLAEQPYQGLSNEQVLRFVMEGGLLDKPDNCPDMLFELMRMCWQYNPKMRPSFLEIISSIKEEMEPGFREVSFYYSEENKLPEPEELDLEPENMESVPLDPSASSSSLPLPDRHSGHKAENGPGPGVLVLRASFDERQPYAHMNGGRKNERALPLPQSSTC
Protocol: as §1

[19] = target: T8, FGF-R1 (Homo sapiens, UniProt P11362); experiment: recombinant kinase transphosphorylation (33P-ATP) profiling, FGF-R1; assay type: biochemical; conditions: 10 concentrations, n=1
T8 construct: host or cells: baculovirus system
Protocol: as §1

[20] = test system: L3.6 pL pancreatic tumor; experiment: orthotopic human pancreatic cancer L3.6 pL in nude mice; assay type: in vivo
Protocol: A pancreatic tumor which is shown to upregulate expression of PDGF AA, BB, A/B at metastatic sites is used for the in vivo studies. Other tumor systems that are known to upregulate expression of PDGF may also be used such as ovarian cancer, prostate cancer, bone metastasis, or breast cancer bone metastasis.
Tumor cells L3.6 pL derived from pancreatic cancer are injected into the pancreas of nude mice. The tumors are grown into detectable lesions.
Two days later, the mice are killed and the organs with and without tumors harvested, fixed, and immunostained to evaluate expression of PDGF AA, BB, A/B, PDGF-R (α,β) and status of phosphorylation of PDGF-R (α,β) on tumor cells and organ-specific endothelial cells.
The surviving mice are then killed and the size of tumor and metastasis is measured. Fixation of the tissues and staining of the tumor cells are performed. Endothelial cells are examined for division (PCNA), apoptosis (TUNEL), CD31 (endothelial cells). Expression of PDGF AA, BB, A/B, and phosphorylation of PDGF-Rα/β are further studied in these endothelial cells.

[21] = test system: MV4;11 or RS4;11 cells; experiment: subcutaneous MV4;11 or RS4;11 tumors in athymic nu/nu mice; assay type: in vivo; conditions: oral, daily or 3 times per week, 50-200 mg/kg, pre-existing tumors
Protocol: Animals are randomized into treatment groups of 15 mice each for efficacy studies. […] Tumor growth is measured twice weekly using Vernier calipers for the duration of the treatment. Tumor volumes are calculated as the product of length x width x height. On completion of the experiments, mice are sacrificed and tumors are harvested for determination of FLT3 and phosphorylated FLT3 in tumor lysates by immunoprecipitation and Western-blot.

[22] = target: T9, Eph-B4 (Homo sapiens, UniProt P54760); experiment: recombinant kinase transphosphorylation (33P-ATP) profiling, Eph-B4; assay type: biochemical; conditions: 10 concentrations, n=1
T9 construct: host or cells: baculovirus system
T9 sequence (P54760 16-987): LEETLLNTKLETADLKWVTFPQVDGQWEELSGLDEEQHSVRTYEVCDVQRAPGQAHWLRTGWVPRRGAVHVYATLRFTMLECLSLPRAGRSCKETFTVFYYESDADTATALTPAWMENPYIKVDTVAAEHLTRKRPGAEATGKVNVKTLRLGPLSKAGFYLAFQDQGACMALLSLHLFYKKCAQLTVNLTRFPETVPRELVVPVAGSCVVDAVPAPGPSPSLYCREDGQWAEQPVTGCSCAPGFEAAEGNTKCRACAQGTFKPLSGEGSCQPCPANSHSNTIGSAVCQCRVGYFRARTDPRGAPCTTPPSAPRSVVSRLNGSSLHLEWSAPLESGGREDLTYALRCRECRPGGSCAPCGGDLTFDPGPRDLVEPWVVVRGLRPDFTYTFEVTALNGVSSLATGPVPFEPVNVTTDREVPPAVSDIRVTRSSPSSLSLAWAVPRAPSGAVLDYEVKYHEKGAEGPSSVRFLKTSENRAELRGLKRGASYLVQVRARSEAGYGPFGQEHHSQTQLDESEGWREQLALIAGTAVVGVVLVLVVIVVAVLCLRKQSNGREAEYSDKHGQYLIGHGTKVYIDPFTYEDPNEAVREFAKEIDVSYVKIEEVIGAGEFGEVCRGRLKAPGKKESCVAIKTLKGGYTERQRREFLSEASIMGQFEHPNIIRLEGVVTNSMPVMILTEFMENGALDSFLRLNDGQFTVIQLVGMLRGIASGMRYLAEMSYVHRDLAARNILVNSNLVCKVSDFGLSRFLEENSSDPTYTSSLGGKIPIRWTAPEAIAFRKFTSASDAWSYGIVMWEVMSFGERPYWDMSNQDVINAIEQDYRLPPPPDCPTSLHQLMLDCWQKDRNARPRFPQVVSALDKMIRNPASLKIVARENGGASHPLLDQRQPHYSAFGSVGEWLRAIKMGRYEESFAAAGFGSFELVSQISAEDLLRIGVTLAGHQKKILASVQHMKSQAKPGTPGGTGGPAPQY
Protocol: as §1

[23] = target: T10, Met (Homo sapiens, UniProt P08581); experiment: recombinant kinase transphosphorylation (33P-ATP) profiling, Met; assay type: biochemical; conditions: 10 concentrations, n=1
T10 construct: host or cells: baculovirus system
T10 sequence (P08581 25-1390): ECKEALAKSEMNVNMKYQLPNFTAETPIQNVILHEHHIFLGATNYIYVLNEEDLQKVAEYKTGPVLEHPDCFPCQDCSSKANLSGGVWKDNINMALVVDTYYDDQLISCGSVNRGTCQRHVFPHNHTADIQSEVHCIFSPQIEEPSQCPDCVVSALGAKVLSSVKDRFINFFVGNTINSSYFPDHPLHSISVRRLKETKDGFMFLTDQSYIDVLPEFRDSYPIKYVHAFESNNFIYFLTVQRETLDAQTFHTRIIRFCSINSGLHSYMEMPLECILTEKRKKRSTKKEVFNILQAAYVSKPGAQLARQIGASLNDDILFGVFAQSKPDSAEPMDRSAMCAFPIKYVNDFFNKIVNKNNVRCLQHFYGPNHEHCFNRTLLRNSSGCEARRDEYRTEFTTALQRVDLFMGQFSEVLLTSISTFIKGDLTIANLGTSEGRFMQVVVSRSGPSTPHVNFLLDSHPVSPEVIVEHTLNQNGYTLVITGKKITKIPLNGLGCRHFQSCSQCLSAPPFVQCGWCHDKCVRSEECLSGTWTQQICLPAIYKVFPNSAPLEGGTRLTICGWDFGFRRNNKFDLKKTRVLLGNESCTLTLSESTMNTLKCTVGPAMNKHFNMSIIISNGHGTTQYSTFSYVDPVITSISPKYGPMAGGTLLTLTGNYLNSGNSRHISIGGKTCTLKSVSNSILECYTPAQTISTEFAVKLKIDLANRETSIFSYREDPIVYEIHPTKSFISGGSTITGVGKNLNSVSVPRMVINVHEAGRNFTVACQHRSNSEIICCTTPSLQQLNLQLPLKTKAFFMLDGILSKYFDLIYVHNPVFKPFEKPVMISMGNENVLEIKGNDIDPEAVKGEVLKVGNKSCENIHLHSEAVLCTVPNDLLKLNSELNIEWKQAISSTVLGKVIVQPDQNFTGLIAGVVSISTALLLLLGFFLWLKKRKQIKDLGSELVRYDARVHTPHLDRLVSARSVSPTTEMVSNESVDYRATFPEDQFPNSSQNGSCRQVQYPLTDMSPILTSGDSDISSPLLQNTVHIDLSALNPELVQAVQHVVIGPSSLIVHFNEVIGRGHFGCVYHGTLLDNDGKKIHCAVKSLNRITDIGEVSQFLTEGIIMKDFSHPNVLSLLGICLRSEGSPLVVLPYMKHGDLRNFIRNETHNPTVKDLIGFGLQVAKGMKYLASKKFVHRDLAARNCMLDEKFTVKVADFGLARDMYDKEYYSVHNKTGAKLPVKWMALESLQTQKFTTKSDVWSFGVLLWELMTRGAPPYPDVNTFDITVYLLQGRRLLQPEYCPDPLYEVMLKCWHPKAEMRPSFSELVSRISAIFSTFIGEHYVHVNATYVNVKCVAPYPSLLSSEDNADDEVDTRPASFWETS
Protocol: as §1

[24] = target: T11, FGF-R4 (Homo sapiens, UniProt P22455); experiment: recombinant kinase transphosphorylation (33P-ATP) profiling, FGF-R4; assay type: biochemical; conditions: 10 concentrations, n=1
T11 construct: host or cells: baculovirus system
T11 sequence (P22455 22-802): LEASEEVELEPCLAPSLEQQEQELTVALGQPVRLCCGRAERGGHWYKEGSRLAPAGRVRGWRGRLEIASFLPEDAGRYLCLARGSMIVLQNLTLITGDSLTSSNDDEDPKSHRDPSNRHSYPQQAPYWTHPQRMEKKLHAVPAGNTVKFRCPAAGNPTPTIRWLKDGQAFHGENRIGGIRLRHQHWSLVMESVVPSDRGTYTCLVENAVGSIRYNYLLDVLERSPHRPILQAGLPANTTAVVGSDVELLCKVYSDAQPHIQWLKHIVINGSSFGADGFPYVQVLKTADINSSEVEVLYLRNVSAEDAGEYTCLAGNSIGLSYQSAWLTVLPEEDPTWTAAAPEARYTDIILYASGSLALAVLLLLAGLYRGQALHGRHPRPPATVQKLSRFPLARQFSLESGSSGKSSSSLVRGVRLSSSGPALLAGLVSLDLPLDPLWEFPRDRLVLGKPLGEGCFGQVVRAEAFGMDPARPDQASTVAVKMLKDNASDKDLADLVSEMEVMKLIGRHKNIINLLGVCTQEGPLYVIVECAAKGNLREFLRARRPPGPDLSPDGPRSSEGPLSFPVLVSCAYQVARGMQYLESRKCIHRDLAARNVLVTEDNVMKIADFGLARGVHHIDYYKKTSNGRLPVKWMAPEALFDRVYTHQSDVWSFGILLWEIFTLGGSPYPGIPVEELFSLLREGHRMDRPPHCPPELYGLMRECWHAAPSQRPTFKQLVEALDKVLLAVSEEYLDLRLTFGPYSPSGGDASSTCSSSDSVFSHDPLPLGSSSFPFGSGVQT
Protocol: as §1

[25] = target: T12, VEGF-R1 (Homo sapiens, UniProt P17948); experiment: recombinant kinase transphosphorylation (33P-ATP) profiling, VEGF-R1; assay type: biochemical; conditions: 10 concentrations, n=1
T12 construct: host or cells: baculovirus system
Protocol: as §1

[26] = target: T13, PDGFRa (Homo sapiens, UniProt P16234); experiment: recombinant kinase transphosphorylation (33P-ATP) profiling, PDGFRa; assay type: biochemical; conditions: 10 concentrations, n=1
T13 construct: host or cells: baculovirus system

[27] = target: T14, Ins-R (Homo sapiens, UniProt P06213); experiment: recombinant kinase transphosphorylation (33P-ATP) profiling, Ins-R; assay type: biochemical; conditions: 10 concentrations, n=1
T14 construct: host or cells: baculovirus system

[28] = target: T15, Brk (Homo sapiens, UniProt Q13882); experiment: recombinant kinase transphosphorylation (33P-ATP) profiling, Brk; assay type: biochemical; conditions: 10 concentrations, n=1
T15 construct: host or cells: baculovirus system
Protocol: as §1

[29] = target: T16, Lck (Homo sapiens, UniProt P06239); experiment: recombinant kinase transphosphorylation (33P-ATP) profiling, Lck; assay type: biochemical; conditions: 10 concentrations, n=1
T16 construct: host or cells: baculovirus system
T16 sequence (P06239 whole entry): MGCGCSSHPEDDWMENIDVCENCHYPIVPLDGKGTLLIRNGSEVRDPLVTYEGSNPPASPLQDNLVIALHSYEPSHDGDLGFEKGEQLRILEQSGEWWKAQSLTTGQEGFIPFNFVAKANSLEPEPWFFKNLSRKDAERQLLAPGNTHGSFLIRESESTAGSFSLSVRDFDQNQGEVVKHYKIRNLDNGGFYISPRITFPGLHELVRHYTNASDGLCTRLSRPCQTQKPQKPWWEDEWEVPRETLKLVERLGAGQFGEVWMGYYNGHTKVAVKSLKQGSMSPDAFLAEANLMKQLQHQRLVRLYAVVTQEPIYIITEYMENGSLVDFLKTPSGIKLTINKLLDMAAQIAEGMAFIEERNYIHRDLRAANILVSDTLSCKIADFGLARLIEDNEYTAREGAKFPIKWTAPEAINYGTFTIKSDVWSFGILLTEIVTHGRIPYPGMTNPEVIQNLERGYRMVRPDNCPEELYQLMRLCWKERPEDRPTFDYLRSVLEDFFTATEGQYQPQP

[30] = target: T17, PDGFRb (Homo sapiens, UniProt P09619); experiment: recombinant kinase transphosphorylation (33P-ATP) profiling, PDGFRb; assay type: biochemical; conditions: 10 concentrations, n=1
T17 construct: host or cells: baculovirus system

[31] = target: T18, EGF-R (Homo sapiens, UniProt P00533); experiment: recombinant kinase transphosphorylation (33P-ATP) profiling, EGF-R; assay type: biochemical; conditions: 10 concentrations, n=1
T18 construct: host or cells: baculovirus system

COc1cc2ncc(N[C@H]3CC[C@H](O)CC3)nc2cc1OC [GN963, trans-4-(6,7-dimethoxy-quinoxalin-2-ylamino)-cyclohexanol sulfate]
IC50 [1]: 13000 nM | IC50 [2]: 17000 nM | IC50 [3]: 1400 nM | effect on MOLM-13 cell growth ([4]; 72 hours, luminescence assay, FIG. 2): dose response effect | pIC50 ([4]; Homo sapiens, MOLM-13, 72 h with inhibitor, Cell Titer-Glo, range stated for MV4-11 and MOLM-13 together, read-out: IC50, inhibition of cellular proliferation): 5.70 to 6.15 | IC50 [5]: 3600 nM | phosphorylation mediated by protein kinases of families other than tyrosine kinases [6]: did not inhibit | IC50 [7]: 4100 nM | FLT3-ITD phosphorylation [8]: inhibited FLT3-ITD phosphorylation in a dose-dependent manner | resistance of organ-specific endothelial cells to Taxotere increased by pancreatic tumor-conditioned medium [9]: reversal of this increased resistance | sensitivity of endothelial cells to cytotoxicity mediated by Taxotere ([9]; cells at 33° C.): increases sensitivity of endothelial cells to cytotoxicity mediated by Taxotere | induction of apoptosis [10]: induce apoptosis | effect on RS4-11 cell growth [11]: not inhibited; also recorded: no effect | IC50 [12]: 7200 nM | effect on MV4-11 cell growth ([13]; 72 hours, luminescence assay, FIG. 1): inhibits MV4-11 cell growth in a dose dependent manner | pIC50 ([13]; Homo sapiens, MV4-11, 72 h with inhibitor, Cell Titer-Glo, range stated for MV4-11 and MOLM-13 together, read-out: IC50, inhibition of cellular proliferation): 5.70 to 6.15 | STAT5, MAPK and P13K phosphorylation [14]: inhibits STAT5, MAPK and P13K phosphorylation in a dose-dependent manner | large infiltrating cells with mitotic figures in bone marrow ([15]; H&E-stained sections, oral 50-200 mg/kg): reduced numbers of large infiltrating cells with mitotic figures | CD45 positive cells in bone marrow ([15]; flow cytometry, oral 50-200 mg/kg): reduced numbers of CD45 positive cells | survival ([15]; oral, 50-200 mg/kg, once daily or 3 times per week): prolonged survival | effect on AML193 cell growth [16]: not inhibited; also recorded: no effect | IC50 [17]: > 10000 nM | IC50 [18]: > 10000 nM | IC50 [19]: > 10000 nM | survival rate ([20]; combination with Taxotere, 4-6 weeks): higher survival rate | effect of the combination in cancer refractory to chemotherapy ([20]; combination with Taxotere, tumor cells resistant to Taxotere (MDR cells)): synergistic effect | expression of phosphorylated PDGF-R on endothelial cells ([20]; single oral dose, organs harvested two days later): inhibited | tumor growth [21]: efficacy against tumor growth | IC50 [22]: 7200 nM | IC50 [23]: > 10000 nM | IC50 [24]: > 10000 nM | IC50 [25]: > 10000 nM

cis-4-(6,7-dimethoxy-quinoxalin-2-ylamino)-cyclohexanol sulfate [Cis-isomer]
IC50 [1]: 4400 nM | IC50 [2]: 4600 nM | IC50 [3]: > 10000 nM | IC50 [26]: 1400 nM | IC50 [5]: 3200 nM | IC50 [7]: > 10000 nM | IC50 [12]: 6100 nM | IC50 [27]: > 10000 nM | IC50 [28]: 5700 nM | IC50 [29]: 7500 nM | IC50 [30]: 2200 nM | IC50 [18]: > 10000 nM | IC50 [19]: > 10000 nM | IC50 [31]: > 10000 nM | IC50 [22]: > 10000 nM | IC50 [23]: 10000 nM | IC50 [24]: > 10000 nM | IC50 [25]: > 10000 nM
